According to patent US8389500B2, “Fused heterocyclic compounds as ion channel modulators” (Gilead Sciences, Inc., priority 2008, dated 2013):

Key:
hERG potassium channel = biological target: T1, hERG potassium channel (Homo sapiens, UniProt Q12809); assay: hERG screening assay (PatchXpress patch clamp, CHO cells); format: cell-based; details: hERG in CHO cells, peak current at −50 mV; for hERG Patch Clamp hERG % blk 1 μm: 1 μm test compound; for hERG Patch Clamp hERG % blk 10 μm: 10 μm test compound
T1 construct: expressed in transfected cells; host or cells: CHO (Chinese Hamster Ovary)
Protocol: Compounds were screened to test their activity in blocking the hERG potassium channel. The hERG channel is heterologously expressed in a CHO (Chinese Hamster Ovary) cell line. Cells are maintained with standard tissue culture procedures and stable channel expression is maintained with 500 μg/ml G418 in the culture medium. Cells are harvested for testing on the PatchXpress automated patch clamp with Accumax (Innovative Cell Technologies, San Diego, Calif.) to isolate single cells.
The following solutions are used for electrophysiological recordings. The external solution contains: 2 mM CaCl2; 2 mM MgCl2; 4 mM KCl; 150 mM NaCl; 10 mM Glucose; 10 mM HEPES (pH 7.4 with 1M NaOH, osmolarity). The internal solution contains: 140 mM KCl, 10 mM MgCl2, 6 mM EGTA, 5 mM HEPES, 5 mM ATP (pH adjusted to 7.25 with KOH).
hERG channels are activated when the voltage is stepped to +20 mV from the −80 mV holding potential. During a 5 second step at +20 mV, the channels activate and then largely inactivate, so the currents are relatively small. Upon returning to −50 mV from +20 mV, hERG currents transiently become much larger as inactivation is rapidly removed and then the channel closes. The first step to −50 mV for 300 ms is used as a baseline for measuring the peak amplitude during the step to −50 mV after channel activation. The peak current at −50 mV is measured both under control conditions and after addition of compound.
All compounds are prepared as 10 mM DMSO stocks in glass vials. Stock solutions are mixed by vigorous vortexing and sonication for about 2 minutes at room temperature. For testing, compounds are diluted in glass vials using an intermediate dilution step in pure DMSO and then further diluted to working concentrations in external solution. Dilutions are prepared no longer than 20 minutes before use.
After achieving the whole-cell configuration, cells are monitored for 90 seconds to assess stability and washed with external solution for 66 seconds. The voltage protocol described above is then applied to the cells every 12 seconds and throughout the whole procedure. Only cells with stable recording parameters and meeting specified health criteria are allowed to enter the compound addition procedure.
External solution containing 0.1% DMSO (vehicle) is applied to the cells first to establish the control peak current amplitude. After allowing the current to stabilize for 3 to 5 minutes, 1 μM and then 10 μM test compounds are applied. Each compound concentration is added 4 times and cells are kept in test solution until the effect of the compound reaches steady state or for a maximum of 12 minutes. After addition of test compound, a positive control (1 μM Cisapride) is added and must block >95% of the current for the experiment to be considered valid. Washout in the external solution compartment is performed until the recovery of the current reaches steady state. Data are analyzed using DataXpress, Clampfit (Molecular Devices, Inc., Sunnyvale) and Origin 7 (Originlab Corp.)

[1] = biological target: T2, wild-type human cardiac sodium channel, hNav1.5 (late sodium current) (Homo sapiens, UniProt Q14524); assay: Late INa screening assay (PatchXpress whole cell patch clamp); format: cell-based; details: HEK293 hNav1.5, late INa generated with 10 μM Tefluthrin (some experiments 50 nM ATX II); for inhibition at 10 µM: 10 μM test compound, read-out: Late INa % blk (10 μM test cmpd); for inhibition at 1 µM: 1 μM test compound, read-out: Late INa % blk (1 μM test cmpd)
T2 construct: host or cells: HEK293
Procedure, shortened: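 Late sodium current block was assessed by automated whole cell patch clamp on a PatchXpress 7000A using HEK293 cells stably expressing wild-type human hNav1.5 without beta subunits. Late current was induced with 10 μM Tefluthrin or 50 nM ATX II. Channels were stepped from −120 mV to −20 mV for 250 ms at 0.1 Hz at 24-27° C. Current was normalized to 0Na baseline and expressed as percent block.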

T2 sequence (Q14524 whole entry): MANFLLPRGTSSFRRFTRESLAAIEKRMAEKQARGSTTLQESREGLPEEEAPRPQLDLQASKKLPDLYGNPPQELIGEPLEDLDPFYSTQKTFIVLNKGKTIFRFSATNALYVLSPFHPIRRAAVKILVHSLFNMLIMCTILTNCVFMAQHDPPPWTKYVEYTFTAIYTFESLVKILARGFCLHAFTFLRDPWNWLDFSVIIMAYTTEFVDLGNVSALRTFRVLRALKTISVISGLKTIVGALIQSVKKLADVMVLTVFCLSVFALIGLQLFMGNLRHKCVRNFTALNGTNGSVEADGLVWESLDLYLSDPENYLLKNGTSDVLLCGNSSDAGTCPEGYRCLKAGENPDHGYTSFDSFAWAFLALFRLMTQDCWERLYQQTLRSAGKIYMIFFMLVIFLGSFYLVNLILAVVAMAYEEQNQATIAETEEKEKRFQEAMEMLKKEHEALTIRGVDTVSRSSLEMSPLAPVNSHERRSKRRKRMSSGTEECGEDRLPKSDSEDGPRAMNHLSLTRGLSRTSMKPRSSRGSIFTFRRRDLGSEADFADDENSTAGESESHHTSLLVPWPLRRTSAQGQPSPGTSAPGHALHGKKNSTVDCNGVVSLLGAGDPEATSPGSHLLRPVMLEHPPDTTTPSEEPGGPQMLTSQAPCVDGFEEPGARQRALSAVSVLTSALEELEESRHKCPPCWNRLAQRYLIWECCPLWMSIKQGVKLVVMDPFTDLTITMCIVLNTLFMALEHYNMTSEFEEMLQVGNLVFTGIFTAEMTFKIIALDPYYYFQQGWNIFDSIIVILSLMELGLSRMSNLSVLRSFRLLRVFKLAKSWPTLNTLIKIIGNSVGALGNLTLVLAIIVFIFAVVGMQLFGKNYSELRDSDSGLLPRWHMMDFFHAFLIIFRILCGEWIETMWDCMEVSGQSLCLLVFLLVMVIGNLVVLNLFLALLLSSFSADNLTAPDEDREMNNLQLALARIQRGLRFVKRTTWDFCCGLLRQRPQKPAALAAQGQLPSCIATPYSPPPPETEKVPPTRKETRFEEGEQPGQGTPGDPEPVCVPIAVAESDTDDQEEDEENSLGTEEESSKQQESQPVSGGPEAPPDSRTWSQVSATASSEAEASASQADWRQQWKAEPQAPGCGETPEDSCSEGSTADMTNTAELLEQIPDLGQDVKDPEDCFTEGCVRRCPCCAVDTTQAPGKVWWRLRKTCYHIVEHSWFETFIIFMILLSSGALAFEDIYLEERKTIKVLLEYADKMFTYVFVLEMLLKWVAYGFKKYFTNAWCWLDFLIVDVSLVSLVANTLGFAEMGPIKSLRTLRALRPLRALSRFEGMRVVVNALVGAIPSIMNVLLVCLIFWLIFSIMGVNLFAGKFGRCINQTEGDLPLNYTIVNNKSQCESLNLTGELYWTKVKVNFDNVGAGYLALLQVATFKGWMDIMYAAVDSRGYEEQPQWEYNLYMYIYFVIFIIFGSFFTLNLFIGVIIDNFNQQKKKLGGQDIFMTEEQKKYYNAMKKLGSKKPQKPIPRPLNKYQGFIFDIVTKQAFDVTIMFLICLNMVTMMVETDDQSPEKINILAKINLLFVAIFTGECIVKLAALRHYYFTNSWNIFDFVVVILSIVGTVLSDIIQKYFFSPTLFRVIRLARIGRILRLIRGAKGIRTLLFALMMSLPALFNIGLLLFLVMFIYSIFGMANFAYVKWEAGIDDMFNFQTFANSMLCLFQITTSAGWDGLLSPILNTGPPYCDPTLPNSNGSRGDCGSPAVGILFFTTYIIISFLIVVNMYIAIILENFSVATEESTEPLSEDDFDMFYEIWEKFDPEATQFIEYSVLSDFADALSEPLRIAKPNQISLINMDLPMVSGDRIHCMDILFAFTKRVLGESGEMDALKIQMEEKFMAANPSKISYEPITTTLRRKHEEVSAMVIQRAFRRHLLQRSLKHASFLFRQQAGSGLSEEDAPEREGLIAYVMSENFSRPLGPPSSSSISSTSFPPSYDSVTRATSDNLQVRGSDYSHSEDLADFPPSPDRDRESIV
T1 sequence (Q12809 whole entry): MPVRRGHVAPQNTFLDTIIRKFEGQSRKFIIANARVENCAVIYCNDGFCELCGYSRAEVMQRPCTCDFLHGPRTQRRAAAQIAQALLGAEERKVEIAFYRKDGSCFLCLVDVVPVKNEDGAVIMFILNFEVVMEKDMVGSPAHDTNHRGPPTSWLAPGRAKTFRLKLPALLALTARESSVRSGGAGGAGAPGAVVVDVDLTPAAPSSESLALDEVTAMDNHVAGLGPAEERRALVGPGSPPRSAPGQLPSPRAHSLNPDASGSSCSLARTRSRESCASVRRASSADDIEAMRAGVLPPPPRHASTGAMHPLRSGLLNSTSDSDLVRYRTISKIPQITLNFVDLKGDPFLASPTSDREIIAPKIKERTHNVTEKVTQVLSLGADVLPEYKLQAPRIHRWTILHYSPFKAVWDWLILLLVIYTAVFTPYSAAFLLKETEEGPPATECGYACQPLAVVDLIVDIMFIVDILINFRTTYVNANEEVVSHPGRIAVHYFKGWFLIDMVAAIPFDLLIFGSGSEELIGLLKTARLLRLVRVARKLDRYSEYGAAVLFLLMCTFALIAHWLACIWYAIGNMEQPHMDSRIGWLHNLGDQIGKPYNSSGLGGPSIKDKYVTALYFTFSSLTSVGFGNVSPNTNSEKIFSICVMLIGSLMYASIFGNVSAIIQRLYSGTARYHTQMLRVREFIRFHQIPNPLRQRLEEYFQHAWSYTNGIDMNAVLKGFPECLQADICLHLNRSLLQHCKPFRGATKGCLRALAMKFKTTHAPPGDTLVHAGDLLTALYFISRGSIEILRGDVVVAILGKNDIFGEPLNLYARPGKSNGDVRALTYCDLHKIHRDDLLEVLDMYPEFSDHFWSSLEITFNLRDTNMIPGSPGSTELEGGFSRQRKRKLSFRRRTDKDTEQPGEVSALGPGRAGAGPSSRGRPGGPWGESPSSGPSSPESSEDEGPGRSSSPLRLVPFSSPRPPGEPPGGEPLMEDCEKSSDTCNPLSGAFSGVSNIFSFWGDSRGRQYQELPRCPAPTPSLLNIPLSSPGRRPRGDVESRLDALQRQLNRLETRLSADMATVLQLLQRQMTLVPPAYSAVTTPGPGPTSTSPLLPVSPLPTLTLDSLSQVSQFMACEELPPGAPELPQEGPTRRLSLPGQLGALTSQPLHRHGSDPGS

Structure (SMILES) | hERG Patch Clamp hERG % blk 1 μm (hERG potassium channel) | hERG Patch Clamp hERG % blk 10 μm (hERG potassium channel) | inhibition at 10 µM [1] | inhibition at 1 µM [1]
CS(=O)(=O)Nc1ccc(-c2ccccc2OC(F)(F)F)c(Cl)c1 [PT-022, N-[2-chloro-2′-(trifluoromethoxy)biphenyl-4-yl]methanesulfonamide] | 10% | 92% | 54.8% | –
CS(=O)(=O)Nc1ccc(-c2ccc(C(F)(F)F)cc2)c(Cl)c1 [PT-018, N-[2-chloro-4′-(trifluoromethyl)biphenyl-4-yl]methanesulfonamide] | 10% | 10% | 50.6% | –
CS(=O)(=O)Nc1ccc(-c2ccc(Oc3ccccc3)cc2)cc1Cl [PT-034, N-(3-chloro-4′-phenoxybiphenyl-4-yl)methanesulfonamide] | 10% | 10% | 69.7% | 25.9%
CS(=O)(=O)Nc1ccc(-c2ccc(Cl)c(F)c2)c(Cl)c1 [PT-017, N-(2,4′-dichloro-3′-fluorobiphenyl-4-yl)methanesulfonamide] | 21% | 80% | 69.5% | 34.8%
Cc1cc(N(Cc2ccc(C(=O)O)cc2)S(C)(=O)=O)ccc1-c1ccc(Oc2ccccc2)cc1 [PT-108, 4-{[(2-methyl-4′-phenoxybiphenyl-4-yl)(methylsulfonyl)amino]methyl}benzoic acid] | 10% | 10% | 55.6% | –
Cc1cc(N(CC(=O)O)S(C)(=O)=O)ccc1-c1ccc(Oc2ccccc2)cc1 [PT-082, N-(2-methyl-4′-phenoxybiphenyl-4-yl)-N-(methylsulfonyl)glycine] | 10% | 10% | 19.9% | –
O=S(=O)(Nc1ccc(-c2cccc(OC(F)(F)F)c2)c(Cl)c1)C1CC1 [PT-047, N-[2-chloro-3′-(trifluoromethoxy)biphenyl-4-yl]cyclopropanesulfonamide] | 10% | 28.5% | 77.7% | 48.6%
Cc1cc(NS(C)(=O)=O)ccc1-c1ccc(Oc2ccccc2)cc1 [PT-046, N-(2-methyl-4′-phenoxybiphenyl-4-yl)methanesulfonamide] | 10% | 28.5% | – | –
CCS(=O)(=O)Nc1ccc(-c2ccc(Cl)c(F)c2)c(Cl)c1 [PT-026, N-(2,4′-dichloro-3′-fluorobiphenyl-4-yl)ethanesulfonamide] | 10% | 10% | 78.5% | 33.8%
Cc1cc(N(Cc2cccc(C(=O)O)c2)S(C)(=O)=O)ccc1-c1ccc(Oc2ccccc2)cc1 [PT-112, 3-{[(2-methyl-4′-phenoxybiphenyl-4-yl)(methylsulfonyl)amino]methyl}benzoic acid] | 10% | 21.5% | 35.5% | –
O=S(=O)(Nc1ccc(-c2cccc(OC(F)(F)F)c2)cc1)C1CC1 [PT-060, N-[3′-(trifluoromethoxy)biphenyl-4-yl]cyclopropanesulfonamide] | 10% | 35.5% | 54.4% | –
COc1cc(NS(C)(=O)=O)ccc1-c1ccc(Cl)c(F)c1 [PT-003, N-(4′-chloro-3′-fluoro-2-methoxybiphenyl-4-yl)methanesulfonamide] | 10% | 28.3% | 58.3% | 11.2%
O=S(=O)(Nc1ccc(-c2ccc(OC(F)(F)F)cc2)c(Cl)c1)C1CC1 [PT-050, N-[2-chloro-4′-(trifluoromethoxy)biphenyl-4-yl]cyclopropanesulfonamide] | 2% | 47.5% | 61% | –
CS(=O)(=O)Nc1ccc(-c2ccc(C(F)(F)F)cc2)c(C(F)(F)F)c1 [PT-013, N-[2,4′-bis(trifluoromethyl)biphenyl-4-yl]methanesulfonamide] | 10.5% | 29% | 54.1% | –
CS(=O)(=O)Nc1ccc(-c2cccc(C(F)(F)F)c2)cc1 [PT-001, N-[3′-(trifluoromethyl)biphenyl-4-yl]methanesulfonamide] | 10% | 66% | 58.1% | –
O=S(=O)(Nc1ccc(-c2ccc(F)c(Cl)c2)c(Cl)c1)C1CC1 [PT-049, N-(2,3′-dichloro-4′-fluorobiphenyl-4-yl)cyclopropanesulfonamide] | 10% | 32% | 60.1% | –
Cc1cc(NS(C)(=O)=O)ccc1-c1cccc(OC(F)(F)F)c1 [PT-040, N-[2-methyl-3′-(trifluoromethoxy)biphenyl-4-yl]methanesulfonamide] | 10% | 25% | 68.3% | 32.5%
